According to patent US8791132B2, “Compounds and methods for treatment of hypertension” (Medivation Technologies, Inc., priority 2011, dated 2014):

Columns and labels:
[1] = test system: SH-SY5Y cells over-expressing α-syn; test: Cell viability (MTS reduction) in SH-SY5Y cells over-expressing α-synuclein; format: cell-based; details: Homo sapiens, 336 h, α-syn over-expression (−dox), +dox control = 100, 14 days, read-out: Relative cell viability protection
Procedure: Cell Culture. SH-SY5Y cells stably transfected with a doxycyline-inducible wild-type α-synuclein (α-syn) gene along with control SH-SY5Y cells over-expressing the β-galactosidase (β-gal) gene (a gift from L. Stefanis, Division of Basic Neurosciences, Biomedical Research Foundation of the Academy of Athens, Athens, Greece) are cultured as described by Vekrellis et al. (Vekrellis K, Xilouri M, Emmanouilidou E, Stefanis L. (2009). Inducible over-expression of α-syn in human neuronal cells leads to caspase-dependent non-apoptotic death. J Neurochem 109, 1348-1362). In accordance with this method, cells are cultured and maintained in RPMI 1640, 10% fetal bovine serum supplemented with 250 μg/mL G418 and 50 μg/mL Hygromycin B. Expression of α-syn is switched off in stock cultures with doxycycline (2 μg/mL). For experimental procedures, cells are plated at (4−8×10^4 cells/cm^2) and differentiated in absence of doxycycline and in the presence of 20 μM all-trans retinoic acid (RA) (Sigma, St Louis, Mo., USA).
Viability Assay: Cells are cultured in 96-well plates. After 24 h, cells are treated with RA and Compounds of Invention at 0.1 and 10 nM in the absence of doxycyline. Culture medium with RA and drugs is fully replaced after 7 days. Cell viability is measured by the release of lactate dehydrogenase (LDH) from necrotic cells into the culture medium and by measuring the capacity of cells to metabolize MTS tetrazolium (MTS) after 14 days in culture. LDH leakage is assessed according to the Cytotoxicity Detection KitPlus (Roche, Mannheim, Germany) and MTS reduction is assessed by the CellTiter 96® AQueous One Solution Cell Proliferation assay (Promega Corporation, Madison, Wis., USA).
Assay results for the experiments with α-syn over-expression are presented as the MTS reduction capacity (cell viability) of control cells (+dox), cells over-expressing α-syn (−dox), and cells over-expressing α-syn incubated with Compounds of the Invention at 0.1 nM (FIG. 18A) or 10 nM (FIG. 18B).

SH-SY5Y cells [2] = test: Cell viability (MTS reduction) in 4-Br-A23187-treated SH-SY5Y cells; format: cell-based; details: MTS reduction capacity; 4-Br-A23187 2 μM, 24 h; compounds at 10 nM
Procedure: (§1) After 24 h, cells were depleted from FBS and kept in culture for 24 h before the experiment. Cells were then treated with 4-Br-A23187 (2 μM), hydrogen peroxide (300 μM) or the mitochondrial toxin rotenone (25 μM) in the presence of vehicle or Compound of the Invention for 24 h. Cell death was determined by measurements of LDH release according to the Cytotoxicity Detection KitPlus (Roche, Mannheim, Germany). Cell viability was determined by measuring the capacity of cells to metabolize MTS tetrazolium (MTS) according to the Cytotoxicity Detection KitPlus (Roche, Mannheim, Germany) and MTS reduction is assessed by the CellTiter 96® AQueous One Solution Cell Proliferation assay (Promega Corporation, Madison, Wis., USA). Compounds were screened at 10 nM, using DMSO as vehicle. Assay results for the experiments with hydrogen peroxide are presented as the LDH release (cell death) of untreated cells (control), hydrogen peroxide-treated cells (vehicle), and co-incubation of hydrogen peroxide with Compounds of the Invention treated cells normalized to the vehicle (FIG. 17A). This assay assesses the ability of the test compounds to protect against cell death that is mediated by mitochondrial dysfunction. In the assay, the calcium ionophore 4-Br-A23187 is used to challenge the cells, causing calcium levels to rise in mitochondria, which leads to depolarization and cell death. Test compounds are assessed for their ability to prevent cell death in response to challenge with 4-Br-A23187.

SH-SY5Y cells [3] = test: Cell death (LDH release) in hydrogen peroxide-treated SH-SY5Y cells; format: cell-based; details: LDH release normalized to vehicle (=100); hydrogen peroxide 300 μM, 24 h; compounds at 10 nM
Procedure: as §1, with “SH-SY5Y cells cultured in DMEM/F12 media supplemented with 10% FBS were seeded in 96-well microplates at 150,000 cells/cm^2. After” for “After”

[4] = target: T1, human recombinant adrenergic α2B receptor (Homo sapiens, UniProt P18089); test: Radioligand binding, adrenergic α2B ([3H]Rauwolscine); details: [3H]Rauwolscine, repeat assays, each datapoint shown
T1 construct: expressed in transfected cells; host or cells: CHO-K1
T1 sequence (P18089 1-450): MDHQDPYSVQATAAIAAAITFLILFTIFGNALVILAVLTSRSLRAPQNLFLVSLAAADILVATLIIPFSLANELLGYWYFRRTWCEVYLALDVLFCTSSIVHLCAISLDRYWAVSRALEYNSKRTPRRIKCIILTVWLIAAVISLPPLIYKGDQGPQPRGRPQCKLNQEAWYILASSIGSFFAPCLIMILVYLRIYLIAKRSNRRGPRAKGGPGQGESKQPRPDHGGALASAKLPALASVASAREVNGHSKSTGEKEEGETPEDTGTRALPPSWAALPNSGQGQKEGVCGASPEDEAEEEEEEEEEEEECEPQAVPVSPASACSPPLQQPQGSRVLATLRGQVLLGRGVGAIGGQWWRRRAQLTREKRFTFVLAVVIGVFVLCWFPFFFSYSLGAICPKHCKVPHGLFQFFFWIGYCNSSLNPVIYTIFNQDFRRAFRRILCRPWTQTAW
In short: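 Assay used CHO-K1-expressed human α2B receptor in Tris-HCl pH 7.4 buffer with MgCl2, EDTA and BSA; 60 min incubation at 25 °C.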

[5] = target: T2, human recombinant adrenergic α2A receptor (Homo sapiens, UniProt P08913); test: Radioligand binding, adrenergic α2A ([3H]MK-912); details: compound at 0.1 μM; [3H]MK-912; repeat assays, each datapoint shown
T2 construct: expressed in transfected cells; host or cells: insect Sf9 cells
T2 sequence (P08913 1-465): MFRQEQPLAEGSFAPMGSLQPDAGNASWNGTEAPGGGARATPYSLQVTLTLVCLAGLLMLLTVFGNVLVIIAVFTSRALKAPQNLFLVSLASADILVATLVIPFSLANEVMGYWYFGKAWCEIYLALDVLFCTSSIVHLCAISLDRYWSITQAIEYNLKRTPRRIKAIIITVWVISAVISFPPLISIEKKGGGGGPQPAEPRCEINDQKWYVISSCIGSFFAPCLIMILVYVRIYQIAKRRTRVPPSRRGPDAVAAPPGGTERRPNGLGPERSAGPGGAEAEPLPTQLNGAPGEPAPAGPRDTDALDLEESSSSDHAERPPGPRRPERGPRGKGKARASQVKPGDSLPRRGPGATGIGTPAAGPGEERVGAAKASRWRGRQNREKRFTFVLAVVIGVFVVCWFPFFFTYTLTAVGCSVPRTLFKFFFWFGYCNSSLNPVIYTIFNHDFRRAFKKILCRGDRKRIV
In short: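 Displacement of 1 nM [3H]MK-912 from receptor produced in insect Sf9 cells was measured after 60 min at 25 °C. Readout: percent inhibition of specific binding.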

[6] = target: T3, rat adrenergic α1B receptor (Rattus norvegicus, UniProt P15823); test: Radioligand binding, adrenergic α1B ([3H]Prazosin); details: compound at 0.1 μM, [3H]Prazosin, repeat assays, each datapoint shown; for Percentage inhibition of ligand binding, Adrenergic α1B: 0.1 µM
T3 construct: rat adrenergic α1B receptor obtained from Wistar Rat liver; from tissue; host or cells: Wistar rat liver
T3 sequence (P15823 1-515): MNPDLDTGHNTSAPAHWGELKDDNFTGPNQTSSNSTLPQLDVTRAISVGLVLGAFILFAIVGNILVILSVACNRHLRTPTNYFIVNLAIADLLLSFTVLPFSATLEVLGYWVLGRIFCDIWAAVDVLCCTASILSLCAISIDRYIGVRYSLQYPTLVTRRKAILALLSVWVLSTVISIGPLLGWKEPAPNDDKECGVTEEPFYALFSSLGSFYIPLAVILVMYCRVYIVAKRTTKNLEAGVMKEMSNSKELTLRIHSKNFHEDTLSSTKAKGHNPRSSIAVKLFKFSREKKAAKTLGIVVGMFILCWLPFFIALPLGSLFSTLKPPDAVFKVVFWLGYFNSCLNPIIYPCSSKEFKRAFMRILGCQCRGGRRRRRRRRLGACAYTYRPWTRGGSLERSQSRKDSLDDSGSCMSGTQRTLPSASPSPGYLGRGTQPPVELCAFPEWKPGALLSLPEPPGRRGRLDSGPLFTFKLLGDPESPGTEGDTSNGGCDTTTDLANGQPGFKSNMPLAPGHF
In short: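 Rat α1B receptor from Wistar rat liver was incubated with 0.25 nM [3H]prazosin for 60 min at 25 °C in 50 mM Tris-HCl, pH 7.4, 0.5 mM EDTA. Non-specific binding was defined with 10 μM phentolamine. Bound radioligand was measured by filtration and counting, reported as percent inhibition of specific binding.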

[7] = target: T4, human recombinant adrenergic α1D receptor (Homo sapiens, UniProt P25100); test: Radioligand binding, adrenergic α1D ([3H]Prazosin); details: compound at 0.1 μM; [3H]Prazosin; repeat assays, each datapoint shown; read-out: Percentage inhibition of ligand binding, Adrenergic α1D
T4 construct: expressed in transfected cells; host or cells: HEK-293
T4 sequence (P25100 1-572): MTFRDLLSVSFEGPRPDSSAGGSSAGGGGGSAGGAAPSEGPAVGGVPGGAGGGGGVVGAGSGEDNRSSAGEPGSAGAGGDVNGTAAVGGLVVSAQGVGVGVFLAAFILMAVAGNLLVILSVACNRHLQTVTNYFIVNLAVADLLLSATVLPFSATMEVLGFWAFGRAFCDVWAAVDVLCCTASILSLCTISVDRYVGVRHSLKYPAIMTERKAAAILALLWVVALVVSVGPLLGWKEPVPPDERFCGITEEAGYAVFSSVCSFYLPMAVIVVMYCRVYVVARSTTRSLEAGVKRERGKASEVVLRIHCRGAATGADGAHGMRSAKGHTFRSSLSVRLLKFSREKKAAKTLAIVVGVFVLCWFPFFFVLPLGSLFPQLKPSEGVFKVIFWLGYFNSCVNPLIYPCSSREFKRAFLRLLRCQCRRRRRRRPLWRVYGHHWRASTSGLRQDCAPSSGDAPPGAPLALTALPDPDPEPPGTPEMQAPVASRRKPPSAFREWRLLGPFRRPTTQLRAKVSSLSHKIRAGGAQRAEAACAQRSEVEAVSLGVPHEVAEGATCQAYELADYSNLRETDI
Procedure: Compounds were incubated with 0.6 nM [3H]Prazosin for 60 min at 25° C. Non-specific binding was estimated in the presence of 10 μM phentolamine. Receptor proteins were filtered and washed, the filters were then counted to determine [3H]Prazosin specifically bound. […] Biochemical assay results are presented as the percent inhibition of specific binding in Table B1.

Percentage inhibition of ligand binding, Adrenergic α2B ([4]; compound at 0.03 μM, 0.03 µM)	Percentage inhibition of ligand binding, Adrenergic α2A [5]	Percentage inhibition of ligand binding, Adrenergic α1B [6]	inhibition at 0.1 µM [7]	inhibition at 0.1 µM ([4]; compound at 0.1 μM, read-out: Percentage inhibition of ligand binding, Adrenergic α2B)	inhibition at 0.1 µM ([6]; read-out: Percentage inhibition of ligand binding, Adrenergic α1B)	Structure (SMILES)	viability at 0.0001 µM ([1]; compounds at 0.1 nM)	viability at 0.01 µM ([1]; compounds at 10 nM)	Relative cell viability protection (SH-SY5Y cells [2])	LDH release (cell death), relative to vehicle (SH-SY5Y cells [3])
–	–	–	–	–	–	Cc1ccc2c(c1)c1c(n2CCc2ccc(C)nc2)CCN(C)C1 [Dimebon (DMB), dimebon, reference compound]	70.5%	85.7%	0.3538	91.15
89%	1%	25%	–	–	–	Cc1ccc2c(c1)c1c(n2CC(O)c2ccncc2)CCNC1 (stereo not shown) [compound 39, 2-(8-methyl-1,2,3,4-tetrahydro-pyrido[4,3-b]indol-5-yl)-1-pyridin-4-yl-ethanol]	–	–	0.36	–
–	–	60%	12%	101%	51%	CN1CCc2c(c3cc(Cl)ccc3n2CC(O)c2ccncc2)C1 (stereo not shown) [compound 4]	–	–	0.3463	–
